Test results from patent US20160213742A1, “COMPOSITIONS AND METHODS FOR THE TREATMENT OF FUNGAL INFECTIONS” (priority 2013, published 2016).
In brackets after ≈: the same amount, converted by molar mass.

Assays:
Assay type in all cases: cell-based
[1] = test system: C. krusei ATCC 14243; experiment: microbe, parasite or virus in culture; details: ATCC 14243, pH 7
Experimental: (§1) The test organisms consisted of strains from the Micromyx collection. Reference isolates were originally received from the American Type Culture Collection (ATCC; Manassas, Va.). Organisms received at Micromyx were initially streaked for isolation on Sabouraud dextrose or potato dextrose agar. Colonies were picked by swab from the medium and resuspended in the appropriate broth containing cryoprotectant. The suspensions were aliquoted into cryogenic vials and maintained at −80° C. Prior to testing, Candida isolates were streaked from the frozen vials on Sabouraud dextrose agar. The yeast isolates were incubated at overnight at 35° C. before use. The fungal isolates were incubated at least 7 days on Sabouraud dextrose agar slants at 35° C. before harvesting.
(§2) Isolates were tested in RPMI medium (Catalog No. SH30011.04; Lot No. AWA92121B; HyClone Labs, Logan, Utah) which was prepared according to CLSI guidelines. The pH of the medium was adjusted to 7.0 with 1 N NaOH. The medium was sterile filtered using a 0.2 μm PES filter and stored at 4° C. until used.
(§3) The MIC assay method employed automated liquid handlers to conduct serial dilutions and liquid transfers. Automated liquid handlers included the Multidrop 384 (Labsystems, Helsinki, Finland), Biomek 2000 and Biomek FX (Beckman Coulter, Fullerton Calif.). The wells in columns 2-12 in standard 96-well microdilution plates (Costar 3795) were filled with 150 μl of the correct diluent (50% DMSO for investigational compounds, 100% DMSO for comparator compounds). These would become the mother plates' from which ‘daughter’ or test plates would be prepared. Stocks were diluted to 40× the desired top concentration in the test plates in the indicated solvent, and 300 μL of the 40× stock was dispensed into the appropriate well in Column 1 of the mother plates. The Biomek 2000 was used to make serial serial 2-fold dilutions through Column 11 in the “mother plate”. The wells of Column 12 contained no drug and served as the organism growth control wells.
(§4) The daughter plates were loaded with 185 μL per well of RPMI described above using the Multidrop 384. The daughter plates were prepared using the Biomek FX which transferred 5 μL of drug solution from each well of a mother plate to the corresponding well of the daughter plate in a single step.
(§5) A standardized inoculum of each organism was prepared. For Candida, colonies were picked from the streak plate and a suspension was prepared in RPMI medium equal to a 0.5 McFarland standard, then diluted 1:100 in RPMI and transferred to compartments of sterile reservoirs divided by length (Beckman Coulter). For the Aspergillus isolates, previously prepared and quantitated suspensions were used to make dilutions in RPMI to reach 20× the final concentration. These dilutions were also transferred to compartments of sterile reservoirs divided by length (Beckman Coulter). The final concentration of the Aspergillus isolates was approximately 0.2-2.5×10^4 CFU/mL.
(§6) The Biomek 2000 was used to inoculate the plates. Daughter plates were placed on the Biomek 2000 work surface reversed so that inoculation took place from low to high drug concentration. The Biomek 2000 delivered 10 μL of standardized inoculum into each well. Thus, the wells of the daughter plates ultimately contained 185 μL of RPMI, 5 μL of drug solution, and 10 μL of inoculum. The final concentration of DMSO in the test well was 2.5% for the evaluated comparators and 1.25% for the investigational agents.
(§7) Plates were stacked 3 high, covered with a lid on the top plate, placed into plastic bags, and incubated at 35° C. for approximately 24-48 hr prior to reading. Plates were read when inoculum was confluent in growth wells. Plates were viewed from the bottom using a plate viewer. […] MICs were read where visible growth of the organism was inhibited. MECs were read where the growth shifted to a small, rounded, compact hyphal form as compared to the hyphal growth seen in the growth control well.

[2] = test system: C. albicans ATCC 90028; experiment: microbe, parasite or virus in culture; details: ATCC 90028, pH 7
Experimental: as §1, §2, §3, §4, §5, §6, §7

[3] = test system: C. parapsilosis ATCC 22019; experiment: microbe, parasite or virus in culture; details: ATCC 22019, pH 7
Experimental: as §1, §2, §3, §4, §5, §6, §7

[4] = test system: C. glabrata ATCC 90030; experiment: microbe, parasite or virus in culture; details: ATCC 90030, pH 7
Experimental: as §1, §2, §3, §4, §5, §6, §7

[5] = test system: Neutrophils purified from human peripheral blood; experiment: Human Neutrophil Transwell Migration Assay; details: 37° C., 45 minutes, % of the maximum migration possible
Source text: Neutrophils were purified from human peripheral blood utilizing PolymorphPrep. Red blood cells were lysed with a lysis buffer and the cells were washed, counted and resuspended in assay buffer. Neutrophils (approximately 50,000 to 100,000 in number) were placed over 5-micon pore sized transwell plates in 24-well format with test compounds in the bottom chamber of each well. A negative control of media alone in the bottom chamber was set up in triplicate. A positive control where the neutrophils were added directly to the bottom well was set up in triplicate.
The plates were incubated at 37° C. for 45 minutes to allow for migration. After this time, migration was confirmed visually and then an aliquot (⅙^th of total cells) from each well was taken for ATP detection via luminescence with ATPlite (PerkinElmer) to quantify the number of migrated cells. The averaged reading for random migration detected in the negative control was subtracted from all readings to obtain the corrected migration number. These numbers were then divided by the averaged reading from the positive control to get the % Neutrophil Migration of the maximum migration possible.

[6] = test system: A. fumigatus MX 5944; experiment: MEC assay (Example 31); details: RPMI pH 7.0, 35° C., 24-48 hr
Experimental: as §1, §2, §3, §4, §5, §6, §7

[7] = test system: A. fumigatus MYA-3626; experiment: MEC assay (Example 31); details: RPMI pH 7.0, 35° C., 24-48 hr
Experimental: as §1, §2, §3, §4, §5, §6, §7

[8] = test system: A. fumigatus MYA-4609; experiment: MEC assay (Example 31); details: RPMI pH 7.0, 35° C., 24-48 hr
Experimental: as §1, §2, §3, §4, §5, §6, §7

[9] = test system: A. flavus MX 5948; experiment: MEC assay (Example 31); details: RPMI pH 7.0, 35° C., 24-48 hr
Experimental: as §1, §2, §3, §4, §5, §6, §7

[10] = test system: A. fumigatus ATCC 13073; experiment: MEC assay (Example 31); details: RPMI pH 7.0, 35° C., 24-48 hr
Experimental: as §1, §2, §3, §4, §5, §6, §7

Row | MIC [1] [µg/mL] | MIC [2] [µg/mL] | MIC [3] [µg/mL] | MIC [4] [µg/mL] | SMILES | % Neutrophil Migration ([5]; conc 0.001 μg/mL) [%] | % Neutrophil Migration ([5]; conc 0.01 μg/mL) [%] | % Neutrophil Migration ([5]; conc 0.1 μg/mL) [%] | % Neutrophil Migration ([5]; conc 1 μg/mL) [%] | % Neutrophil Migration ([5]; conc 10 μg/mL) [%] | MEC [6] [µg/mL] | MEC [7] | MEC [8] [µg/mL] | MEC [9] [µg/mL] | MEC [10] [µg/mL]
1 | 16 (≈ 10.1 µM) | 2 (≈ 1.26 µM) | >32 | 16 (≈ 10.1 µM) | CC[C@H](C)C[C@H](C)CCCCCCCCC(=O)N[C@H]1C[C@@H](O)[C@@H](NCCN)NC(=O)[C@@H]2[C@@H](O)CCN2C(=O)[C@H]([C@H](O)CCNC(=O)CCNC(=O)[C@H](Cc2ccccc2)NC(=O)[C@H](CC(C)C)NC(=O)[C@H](CCSC)NC=O)NC(=O)[C@H]([C@H](O)[C@@H](O)c2ccc(O)cc2)NC(=O)[C@@H]2C[C@@H](O)CN2C(=O)[C@H]([C@@H](C)O)NC1=O [Compound 3] | 1.5 | 109.3 | 66.2 | −9.7 | −11.0 | 1 | 1 µg/mL | 1 | 1 | 1
2 | 8 (≈ 5.86 µM) | 2 (≈ 1.46 µM) | 16 (≈ 11.7 µM) | 2 (≈ 1.46 µM) | CC[C@H](C)C[C@H](C)CCCCCCCCC(=O)N[C@H]1C[C@@H](O)[C@@H](NCCN)NC(=O)[C@@H]2[C@@H](O)CCN2C(=O)[C@H]([C@H](O)CCNC(=O)[C@H](CC(C)C)NC(=O)[C@H](CCSC)NC=O)NC(=O)[C@H]([C@H](O)[C@@H](O)c2ccc(O)cc2)NC(=O)[C@@H]2C[C@@H](O)CN2C(=O)[C@H]([C@@H](C)O)NC1=O [Compound 27] | −1.6 | 3.4 | −4.2 | −1.6 | 37.0 | 0.12 | 0.25 µg/mL | 0.12 | 0.06 | 8
3 | 8 to 16 | 2 (≈ 1.32 µM) | 16 (≈ 10.6 µM) | 4 (≈ 2.64 µM) | CC[C@H](C)C[C@H](C)CCCCCCCCC(=O)N[C@H]1C[C@@H](O)[C@@H](NCCNC(=O)[C@H](Cc2ccccc2)NC(=O)[C@H](CC(C)C)NC(=O)[C@H](CCSC)NC=O)NC(=O)[C@@H]2[C@@H](O)CCN2C(=O)[C@H]([C@H](O)CCN)NC(=O)[C@H]([C@H](O)[C@@H](O)c2ccc(O)cc2)NC(=O)[C@@H]2C[C@@H](O)CN2C(=O)[C@H]([C@@H](C)O)NC1=O [Compound 2] | −5.3 | 28.5 | 97.5 | 30.6 | −11.0 | 0.12 to 1 | 0.25-1^ μg/mL | 0.12 to 1 | 0.06 to 1 | 0.12 to 2
4 | 8 (≈ 5.05 µM) | 2 (≈ 1.26 µM) | 32 (≈ 20.2 µM) | 4 (≈ 2.53 µM) | CC[C@H](C)C[C@H](C)CCCCCCCCC(=O)N[C@H]1C[C@@H](O)[C@@H](NCCNC(=O)CCNC(=O)[C@H](Cc2ccccc2)NC(=O)[C@H](CC(C)C)NC(=O)[C@H](CCSC)NC=O)NC(=O)[C@@H]2[C@@H](O)CCN2C(=O)[C@H]([C@H](O)CCN)NC(=O)[C@H]([C@H](O)[C@@H](O)c2ccc(O)cc2)NC(=O)[C@@H]2C[C@@H](O)CN2C(=O)[C@H]([C@@H](C)O)NC1=O [Compound 4] | 3.8 | 88.0 | 15.1 | −9.8 | −11.2 | 1 | 2 µg/mL | 1 | 1 | 1
